Measured values from patent US20080072337A1, “Braf Expression in Zebrafish and Uses Thereof” (Children's Medical Center Corporation, priority 2004, published 2008).

Tested on: zebrafish
Assay: Examination of DMBA treated zebrafish for melanoma
Assay type: in vivo
Settings: over 10,000 DMBA treated zebrafish examined; unpublished data of the applicants

In the case of Cc1c2ccccc2c(C)c2c1ccc1ccccc12 [DMBA], the “melanoma identified in treated zebrafish” value is reported as “failed to identify a single melanoma”.
